For one data set, the system named is HCT116. Briefly: In Vitro cytotoxicity measured by the cell colony formation assay. The conditions noted are these: Homo sapiens, HCT-116; 72 h drug incubation, colonies counted after 7 days; concentration producing 50% inhibition of colony formation; read-out: IN VITRO ID 50 (nm) HCT116. The class given is cell-based.
The test system of data set [1] is A2780 Human Ovarian Carcinoma Xenografts. The following applies: for MDS (n) / Complete Response / Partial Response / Stable Disease / Survivors / Toxic Deaths / Mean Score: i.v. qd x 1 (mg/kg: Taxol 24, 1351 75.3, 1401 107.6, 1418 107.6, Taxotere 70); for MDS (n): 2.0 g cut-off; for MDS (n) / Complete Response / Partial Response / Stable Disease / Survivors / Toxic Deaths: Day 60; for Mean Score: tumor score 1 to 10, group mean; for survival extension compared to Group 1 controls: i.v. qd x 1 (mg/kg: Taxol 24, 1418 107.6, Taxotere 70). As to the method:
Other antitumor compounds were similarly formulated. […] The dosing volume was 0.3 ml per 20 g mouse.
Female NCr-nude mice (implanted subcutaneously with 1 mm^3 A2780 ovarian carcinoma fragments in the flank) were sorted into treatment groups of five mice each, except for the Taxotere treatment group including six mice. […] Dosing was initiated on Day 1. The antitumor compounds were given i.v. at an estimated maximum tolerated dose (MTD) appropriate for each agent on a qd x 1 schedule (single administration of compound). […] Taxotere was given i.v. on a qd x 1 schedule at a dose of 70 mg/kg. The vehicle was administered i.v. to control mice in Group 1 on the qd x 1 schedule. Treatment groups are detailed in Table 7. The study was terminated on Day 60.
The results are summarized in Table 8 and include mean days of survival (MDS), number of toxic deaths, number of survivors, number of complete or partial responses, and number with stable disease. The mean days of survival is the number of days after which a neoplasm reached a size of 2.0 g and the animal was euthanized. A complete response is obtained if the tumor is not palpable at the end of the study. A partial response is obtained if the tumor shrinks to a size smaller than its size on Day 1 of the study.

Turning to `CCC(=O)O[C@H]1C[C@H]2OC[C@@]2(OC(C)=O)[C@H]2[C@H](OC(=O)c3ccccc3)[C@]3(O)C[C@H](OC(=O)[C@H](O)[C@@H](NC(=O)OC(C)(C)C)c4ccoc4)C(C)=C([C@@H](O)C(=O)[C@]12C)C3(C)C` [Compound 1401], in the data set on HCT116, the IC50 was under 1 nM. In addition, in data set [1], the “MDS (n)” value is 32.1 ± 3.9 (4) days, the “Complete Response” value is 0, the “Partial Response” value came out at 0 and the “Stable Disease” value came out at 1. Further, in data set [1], the Survivors was 1, the “Toxic Deaths” value worked out at 0 and the “Mean Score” value was found to be 3.4 ± 0.4.

Turning to `CCC(=O)O[C@H]1C[C@H]2OC[C@@]2(OC(C)=O)[C@H]2[C@H](OC(=O)c3ccccc3)[C@]3(O)C[C@H](OC(=O)[C@H](O)[C@@H](NC(=O)OC(C)(C)C)c4cccs4)C(C)=C([C@@H](O)C(=O)[C@]12C)C3(C)C` [Compound 1418], the IC50 with HCT116 is under 1 nM. Further, in data set [1], the “MDS (n)” value is 32.0 ± 2.3 (5) days, the “Complete Response” value was 0, the “Partial Response” value came to 0 and the “Stable Disease” value was 0. Besides, in data set [1], the Survivors was found to be 0, the “Toxic Deaths” value worked out at 0, the “Mean Score” value is recorded as 3 ± 0 and the “survival extension compared to Group 1 controls” value was “approximately 300%”.

For the molecule `CC(=O)O[C@@]12CO[C@@H]1C[C@H](O)[C@@]1(C)C(=O)[C@H](O)C3=C(C)[C@@H](OC(=O)[C@H](O)[C@@H](NC(=O)OC(C)(C)C)c4ccccc4)C[C@@](O)([C@@H](OC(=O)c4ccccc4)[C@H]21)C3(C)C` [docetaxel, reference compound], the IC50 in the data set with HCT116 is 0.6 nM. In data set [1], the “MDS (n)” value is recorded as 27.4 ± 3.5 (5) days, the “Complete Response” value was 0, the “Partial Response” value was 0 and the “Stable Disease” value is listed as 0. In addition, in data set [1], the Survivors turned out to be 0, the “Toxic Deaths” value is listed as 0, the “Mean Score” value is 2.5 ± 0.3 and the “survival extension compared to Group 1 controls” value was 134%.

Consider `CCC(=O)O[C@H]1C[C@H]2OC[C@@]2(OC(C)=O)[C@H]2[C@H](OC(=O)c3ccccc3)[C@]3(O)C[C@H](OC(=O)[C@H](O)[C@H](C=C(C)C)NC(=O)OC(C)(C)C)C(C)=C([C@@H](O)C(=O)[C@]12C)C3(C)C` [Compound 1351], for which, in the data set with HCT116, the IC50 was under 1 nM. In addition, in data set [1] (1351 75.3 mg/kg i.v. qd x 1), the total response rate result is “at least 20%”. In data set [1], the “MDS (n)” value was 23.0 ± 1.7 (4) days, the “Complete Response” value stood at 0, the “Partial Response” value is given as 1 and the “Stable Disease” value is 0. In data set [1], the Survivors came out at 1, the “Toxic Deaths” value came out at 0 and the “Mean Score” value is 3.6 ± 1.1.

The record behind these values is EP1285918A1, “C7 Ester substituted taxanes as antitumor agents” (Florida State University Research Foundation, Inc., priority 2001, dated 2003).
